Patent US7459450B2, “Neuropeptide receptor modulators” (Schering Corporation, priority 2004, dated 2008)

biological target: T1, Human NPY Y1 receptors (Homo sapiens, UniProt P25929); experiment: NPY Receptor Binding Assay; details: not given
T1 construct: expressed in transfected cells; host or cells: CHO cells (membrane protein)
T1 sequence (P25929 1-384): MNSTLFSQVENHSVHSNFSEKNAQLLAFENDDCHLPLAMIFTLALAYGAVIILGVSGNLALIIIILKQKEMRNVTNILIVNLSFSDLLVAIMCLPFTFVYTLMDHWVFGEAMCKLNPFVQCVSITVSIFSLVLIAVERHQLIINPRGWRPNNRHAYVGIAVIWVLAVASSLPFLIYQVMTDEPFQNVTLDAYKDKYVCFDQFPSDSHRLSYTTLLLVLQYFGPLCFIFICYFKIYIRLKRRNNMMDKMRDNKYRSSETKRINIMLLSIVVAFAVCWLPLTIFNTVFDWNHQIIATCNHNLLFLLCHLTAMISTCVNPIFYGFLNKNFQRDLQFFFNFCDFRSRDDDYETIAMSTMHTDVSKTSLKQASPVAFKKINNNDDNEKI

Row | SMILES | Ki
1 | O=C(O)C[C@@H]1N/C(=N/c2ccc(CCNc3nc4cc(Cl)c(Cl)cc4s3)cc2)SC1=O [Example 392] | > 10 µM
2 | O=C1S/C(=N/c2cccc(CCNc3nc4ccccc4s3)c2)N2CCC[C@@H]12 [Example 408] | > 10 µM
3 | COc1cccc2sc(NCCc3ccc(/N=C4/N[C@@H](C)C(=O)S4)cc3)nc12 [Example 368] | > 10 µM
4 | O=C(O)C[C@@H]1N/C(=N/c2ccc(CCNc3nc4ccc(Cl)cc4s3)cc2)SC1=O [Example 358] | > 10 µM
5 | CC(C)C[C@@H]1N/C(=N/c2ccc(CCNc3nc4ccc(Cl)cc4s3)cc2)SC1=O [Example 383] | > 10 µM
6 | O=C1S/C(=N\c2ccc(CCNc3nc4ccc([N+](=O)[O-])cc4s3)cc2)N2CCC[C@@H]12 [Example 341] | > 10 µM
7 | COc1cccc2sc(NCCc3ccc(/N=C4/N[C@@H](CC(=O)O)C(=O)S4)cc3)nc12 [Example 367] | > 10 µM
8 | O=C1CN/C(=N\c2cccc(CCNc3nc4ccccc4s3)c2)S1 [Example 376] | > 10 µM

Next, values leading:

Row | Ki | SMILES
9 | > 10 µM | O=C(O)C[C@@H]1N/C(=N/c2ccc(CCNc3nc4ccccc4s3)cc2)SC1=O [Example 399]
10 | > 10 µM | CSCC[C@@H]1N/C(=N/c2ccc(CCNc3nc4cc(Cl)c(Cl)cc4s3)cc2)SC1=O [Example 361]
11 | > 10 µM | Cc1cccc2sc(NCCc3ccc(/N=C4/N[C@@H](CC(C)C)C(=O)S4)cc3)nc12 [Example 370]

same assay, conditions: Procedure A compounds, rated A/B/C

Row | Ki | SMILES
12 | > 10 µM | c1ccc2sc(NCCc3ccc(N(C4=NCCS4)C4=NCCS4)cc3)nc2c1 [Example 14]
13 | 1 to 10 µM | COc1ccc2nc(NCCc3ccc(NC4=NCCS4)cc3)sc2c1 [Example 16]
14 | 1 to 10 µM | Fc1ccc2nc(NCCc3ccc(NC4=NCCS4)cc3)sc2c1 [Example 21]

same assay, conditions: Procedure B compounds, rated A/B/C

Row | Ki | SMILES
15 | > 10 µM | CCOC(=O)N1CC2(CCCC2)N=C1Nc1ccc(CCNc2nc3ccccc3s2)cc1 [Example 29]
16 | > 10 µM | CCOC(=O)N1CCN=C1Nc1ccc(CCNc2nc3ccccc3s2)cc1 [Example 26]
17 | > 10 µM | O=C(c1ccccc1)N1CC(c2ccccc2)N=C1Nc1ccc(CCNc2nc3ccccc3s2)cc1 (centres unmarked) [Example 30]

same assay, conditions: Procedure C compounds, rated A/B/C

Row | Ki | SMILES
18 | > 10 µM | CCOC(=O)N1C(=O)[C@H](C)N=C1Nc1ccc(CCNc2nc3ccccc3s2)cc1 [Example 37]
19 | > 10 µM | CCOC(=O)N1C(=O)[C@H]([C@@H](C)CC)N=C1Nc1ccc(CCNc2nc3ccccc3s2)cc1 [Example 41]
20 | > 10 µM | CC[C@H](C)[C@@H]1N=C(Nc2ccc(CCNc3nc4ccccc4s3)cc2)N(C(=O)c2ccccc2)C1=O [Example 52]
21 | > 10 µM | CCOC(=O)N1C(=O)[C@H](CC(=O)O)N=C1Nc1ccc(CCNc2nc3ccccc3s2)cc1 [Example 38]
22 | > 10 µM | CCOC(=O)N1C(=O)[C@H](CCC(=O)O)N=C1Nc1ccc(CCNc2nc3ccccc3s2)cc1 [Example 40]

same assay, conditions: Procedure E compounds, rated A/B/C

Row | SMILES | Ki
23 | CCCCC1CS/C(=N\c2ccc(CCNc3nc4ccc(Cl)cc4s3)cc2)N1 (centres unmarked) [Example 106] | 1 to 10 µM
24 | COc1cccc2sc(NCCc3ccc(/N=C4\SC5Cc6ccccc6[C@@H]5N4C4CC4)cc3)nc12 (some centres unmarked) [Example 229] | > 10 µM
25 | COc1ccc2nc(NCCc3ccc(/N=C4\SC5CCC[C@H]5N4C)cc3)sc2c1 (some centres unmarked) [Example 78] | > 10 µM
26 | CCCC1CS/C(=N\c2ccc(CCNc3nc4ccccc4s3)cc2)N1 (centres unmarked) [Example 264] | < 1 µM
27 | CC1(C)CS/C(=N\c2ccc(CCNc3nc4ccccc4s3)cc2)N1 [Example 272] | < 1 µM
28 | COc1ccc2nc(NCCc3ccc(/N=C4\SC[C@@H]5CCCN45)cc3)sc2c1 [Example 83] | > 10 µM
29 | COc1ccc2nc(NCCc3ccc(/N=C4/NC(c5ccccc5)CCS4)cc3)sc2c1 (centres unmarked) [Example 203] | < 1 µM
30 | CCCC1CS/C(=N\c2ccc(CCNc3nc4ccc(C)cc4s3)cc2)N1 (centres unmarked) [Example 91] | < 1 µM
31 | c1ccc2c(CC3CSC(Nc4ccc(CCNc5nc6ccccc6s5)cc4)=N3)cccc2c1 (centres unmarked) [Example 336] | > 10 µM
32 | C[C@@H]1CS/C(=N\c2ccc(CCNc3nc4ccc(S(C)(=O)=O)cc4s3)cc2)N1 [Example 114] | 1 to 10 µM
33 | Cc1ccc2nc(NCCc3ccc(/N=C4/N[C@H](CC(C)C)CS4)cc3)sc2c1 [Example 88] | < 1 µM
34 | c1ccc2sc(NCCc3ccc(N=C4NCCCS4)cc3)nc2c1 [Example 202] | < 1 µM
35 | Cc1ccc2nc(NCCc3ccc(/N=C4/NC5(CCCC5)CS4)cc3)sc2c1 [Example 226] | 1 to 10 µM
36 | CC(C)C[C@@H]1CS/C(=N\c2ccc(CCNc3nc4ccccc4s3)cc2)N1 [Example 134] | < 1 µM
37 | COc1ccc2nc(NCCc3ccc(/N=C4/NCC(c5ccccc5)S4)cc3)sc2c1 (centres unmarked) [Example 85] | > 10 µM
38 | CCCCC1CS/C(=N\c2ccc(CCNc3nc4ccc(C)cc4s3)cc2)N1 (centres unmarked) [Example 92] | 1 to 10 µM
39 | c1ccc(C2CCS/C(=N/c3cccc(CCNc4nc5ccccc5s4)c3)N2)cc1 (centres unmarked) [Example 71] | > 10 µM
40 | O=[N+]([O-])c1ccc2nc(NCCc3ccc(/N=C4/N[C@H]5c6ccccc6CC5S4)cc3)sc2c1 (some centres unmarked) [Example 194] | > 10 µM

Next, values leading:

Row | Ki | SMILES
41 | < 1 µM | CC[C@@H]1CS/C(=N\c2ccc(CCNc3nc4ccc(F)cc4s3)cc2)N1 [Example 167]
42 | 1 to 10 µM | COc1ccc2nc(NCCc3ccc(/N=C4/N[C@@H](Cc5ccccc5)CS4)cc3)sc2c1 [Example 81]
43 | < 1 µM | C[C@@H]1N/C(=N\c2cccc(CCNc3nc4ccccc4s3)c2)SC1c1ccccc1 (some centres unmarked) [Example 185]
44 | 1 to 10 µM | Clc1ccc2nc(NCCc3ccc(/N=C4/NC5(CCCC5)CS4)cc3)sc2c1 [Example 239]
45 | < 1 µM | c1ccc2sc(NCCc3ccc(NC4=NC(C5CCCCC5)CCS4)cc3)nc2c1 (centres unmarked) [Example 201]
46 | > 10 µM | CC1(C)CS/C(=N/c2cccc(CCNc3nc4ccccc4s3)c2)N1 [Example 321]
47 | < 1 µM | CC(C)C[C@@H]1CS/C(=N\c2ccc(CCNc3nc4ccc(F)cc4s3)cc2)N1 [Example 297]
48 | > 10 µM | CN1CCS/C1=N/c1cccc(CCNc2nc3ccccc3s2)c1 [Example 182]
49 | 1 to 10 µM | CC(C)C[C@@H]1CS/C(=N\c2ccc(CCNc3nc4ccc(S(C)(=O)=O)cc4s3)cc2)N1 [Example 245]
50 | > 10 µM | COc1ccc2nc(NCCc3ccc(/N=C4\SCCN4C)cc3)sc2c1 [Example 80]

same assay, conditions: Procedure G compounds, rated A/B/C

Row | SMILES | Ki
51 | CC(=O)c1sc(Nc2ccc(CCNc3nc4ccccc4s3)cc2)nc1C [Example 429] | > 10 µM
52 | CCOC(=O)c1sc(Nc2ccc(CCNc3nc4ccccc4s3)cc2)nc1C [Example 427] | > 10 µM
53 | COC(=O)Cc1csc(Nc2ccc(CCNc3nc4ccccc4s3)cc2)n1 [Example 431] | > 10 µM

Second part, the compound after the results:

Row | Ki | SMILES
54 | > 10 µM | c1ccc2sc(NCCc3ccc(Nc4nc(C56C[C@H]7C[C@@H](C5)C[C@@H](C6)C7)cs4)cc3)nc2c1 [Example 424]
55 | > 10 µM | COc1ccc(-c2csc(Nc3ccc(CCNc4nc5ccccc5s4)cc3)n2)c(OC)c1 [Example 426]

same assay, conditions: Procedure H compounds, rated A/B/C

Row | Ki | SMILES
56 | > 10 µM | CCCCC1SC(Nc2ccc(CCNc3nc4ccccc4s3)cc2)=NC1=O (centres unmarked) [Example 442]
57 | > 10 µM | CCC1SC(Nc2ccc(CCNc3nc4ccccc4s3)cc2)=NC1=O (centres unmarked) [Example 443]

same assay, conditions: Procedure I compounds, column head blank, rated A/B/C

Row | Ki | SMILES
58 | 1 to 10 µM | c1ccc(C2CCCCC(Nc3ccc(CCNc4nc5ccccc5s4)cc3)=N2)cc1 (centres unmarked) [Example 448]

same assay, conditions: Table 1, rated A/B/C

Row | SMILES | Ki
59 | CC(C)CC1CCSC(Nc2ccc(CCNc3nc4ccccc4s3)cc2)=N1 (centres unmarked) [Example 12] | < 1 µM
60 | COc1ccc(C2CCSC(Nc3ccc(CCNc4nc5ccccc5s4)cc3)=N2)cc1 (centres unmarked) [Example 3] | < 1 µM

Next, values leading:

Row | Ki | SMILES
61 | < 1 µM | CC(C)C1CCSC(Nc2ccc(CCNc3nc4ccccc4s3)cc2)=N1 (centres unmarked) [Example 10]
62 | < 1 µM | c1ccc([C@@H]2CSC(Nc3ccc(CCNc4nc5ccccc5s4)cc3)=N2)cc1 [Example 7]
